# Laboratory results taken from US11452725B2, “Chiral diaryl macrocycles and uses thereof” (TURNING POINT THERAPEUTICS, INC., priority 2015, dated 2022).
# What was measured:
# PLK4 = biological target: T1, PLK4 (Homo sapiens, UniProt O00444); assay: Biochemical kinase assay (Reaction Biology); conditions: 10 μM ATP
# T1 construct: purchased Reaction Biology Corporation (contract assay)
# Description: (§2) Specific kinase/substrate pairs along with required cofactors were prepared in reaction buffer; 20 mM Hepes pH 7.5, 10 mM MgCl2, 1 mM EGTA, 0.02% Brij35, 0.02 mg/ml BSA, 0.1 mM Na3VO4, 2 mM DTT, 1% DMSO (for specific details of individual kinase reaction components see Supplementary Table 2). Compounds were delivered into the reaction, followed ˜20 minutes later by addition of a mixture of ATP (Sigma, St. Louis Mo.) and ^33P ATP (Perkin Elmer, Waltham Mass.) to a final concentration of 10 μM. Reactions were carried out at room temperature for 120 min, followed by spotting of the reactions onto P81 ion exchange filter paper (Whatman Inc., Piscataway, N.J.). […] IC50 values and curve fits were obtained using Prism (GraphPad Software).
# STAT3 = assay: Immunoblotting downstream signaling, HCC78 cells; type: cell-based; conditions: Homo sapiens; HCC78 cell line; read-out: downstream STAT3 phosphorylation IC50
# Description: (§1) NSCLC cell line H2228 (harboring endogenous EML4-ALK fusion gene), HCC78 cells (harboring endogenous SLC34A2-ROS1 fusion gene), Karpas-299 cells (harboring endogenous NPM-ALK fusion gene) or SET-2 (harboring endogenous JAK2V617F activating mutation) were cultured in RPMI medium, and KM12 (harboring endogenous TPM3-TRKA fusion gene) cell line was cultured in DMEM medium, both supplemented with 10% fetal bovine serum and 100 U/mL of penicillin/streptomycin. Ba/F3 and NIH3T3 cells stably expressing ALK or ROS1 (WT or mutant) were culture as mentioned above. […] Protein lysates (approximately 20 μg) was resolved on 4-12% Bolt Bis-Tris precasted gels with MES running buffer (Life Technologies), transferred to nitrocellulose membranes using Trans-Blot Turbo Transfer System (Bio-Rad) and detected with antibodies targeting phosphorylated ALK Y1604 (Cell Signaling Technology), total ALK (Cell Signaling Technology), phosphorylated ROS1 and total ROS1 (Cell Signaling Technology), phosphorylated TRK A/B (Cell Signaling Technology), total TRKA antibody (Santa Cruz Biotechnology), phosphorylated STAT3 and STAT5, total STAT3 and STAT5 (Cell Signaling Technology), phosphorylated AKT (Cell Signaling Technology), total AKT (Cell Signaling Technology), phosphorylated ERK (Cell Signaling Technology), total ERK (Cell Signaling Technology) and Tubulin (Sigma). […]
# AKT [1] = assay: Immunoblotting downstream signaling, HCC78 cells; type: cell-based; conditions: Homo sapiens; HCC78 cell line; read-out: downstream AKT phosphorylation IC50
# Description: as §1
# FGR = biological target: T2, FGR (Homo sapiens, UniProt P09769); assay: Biochemical kinase assay (Reaction Biology); conditions: 10 μM ATP
# T2 construct: purchased Reaction Biology Corporation
# T2 sequence (P09769 whole entry): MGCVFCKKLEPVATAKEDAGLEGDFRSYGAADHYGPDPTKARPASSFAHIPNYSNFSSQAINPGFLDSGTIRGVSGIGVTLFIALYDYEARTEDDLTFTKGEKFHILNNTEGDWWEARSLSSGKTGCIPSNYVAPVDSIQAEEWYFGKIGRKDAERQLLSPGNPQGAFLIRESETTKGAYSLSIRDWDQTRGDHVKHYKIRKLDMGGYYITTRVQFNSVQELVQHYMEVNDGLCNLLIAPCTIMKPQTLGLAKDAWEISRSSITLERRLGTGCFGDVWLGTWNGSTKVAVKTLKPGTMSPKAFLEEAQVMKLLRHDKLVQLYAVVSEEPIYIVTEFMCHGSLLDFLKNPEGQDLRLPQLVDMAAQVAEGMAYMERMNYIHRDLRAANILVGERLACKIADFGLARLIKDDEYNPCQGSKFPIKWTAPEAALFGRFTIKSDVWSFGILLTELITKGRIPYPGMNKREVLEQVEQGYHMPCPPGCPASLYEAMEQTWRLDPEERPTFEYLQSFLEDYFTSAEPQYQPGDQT
# Description: as §2
# PYK2 = biological target: T3, PYK2 (Homo sapiens, UniProt Q14289); assay: Biochemical kinase assay (Reaction Biology); conditions: 10 μM ATP
# T3 construct: purchased Reaction Biology Corporation (contract assay)
# T3 sequence (Q14289 whole entry): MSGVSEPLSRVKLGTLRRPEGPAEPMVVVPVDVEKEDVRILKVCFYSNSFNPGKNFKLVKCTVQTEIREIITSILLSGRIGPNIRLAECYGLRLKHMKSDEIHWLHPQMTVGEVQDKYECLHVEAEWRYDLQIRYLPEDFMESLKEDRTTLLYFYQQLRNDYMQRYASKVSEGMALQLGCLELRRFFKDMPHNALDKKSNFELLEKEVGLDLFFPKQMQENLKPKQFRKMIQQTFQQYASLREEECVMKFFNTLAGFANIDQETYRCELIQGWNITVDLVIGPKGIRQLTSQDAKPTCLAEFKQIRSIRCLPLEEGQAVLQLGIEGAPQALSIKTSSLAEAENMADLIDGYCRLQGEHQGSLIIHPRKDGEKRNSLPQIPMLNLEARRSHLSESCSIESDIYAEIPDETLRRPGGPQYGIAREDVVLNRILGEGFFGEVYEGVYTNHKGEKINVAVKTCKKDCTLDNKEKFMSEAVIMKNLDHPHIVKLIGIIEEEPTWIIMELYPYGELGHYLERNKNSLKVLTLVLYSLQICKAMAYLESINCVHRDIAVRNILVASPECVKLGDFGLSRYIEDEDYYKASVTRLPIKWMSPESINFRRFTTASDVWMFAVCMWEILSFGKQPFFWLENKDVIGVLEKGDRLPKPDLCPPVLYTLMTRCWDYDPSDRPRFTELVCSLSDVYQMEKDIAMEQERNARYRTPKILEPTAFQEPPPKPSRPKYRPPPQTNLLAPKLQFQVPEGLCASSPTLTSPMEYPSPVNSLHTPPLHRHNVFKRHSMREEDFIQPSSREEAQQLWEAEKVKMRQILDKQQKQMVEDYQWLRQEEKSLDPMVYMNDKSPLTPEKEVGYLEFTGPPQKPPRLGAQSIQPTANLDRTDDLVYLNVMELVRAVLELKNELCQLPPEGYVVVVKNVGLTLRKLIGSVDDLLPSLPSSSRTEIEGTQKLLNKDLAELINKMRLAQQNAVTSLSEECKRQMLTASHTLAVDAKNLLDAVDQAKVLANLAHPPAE
# Description: as §2
# YES = biological target: T4, YES (Homo sapiens, UniProt P07947); assay: Biochemical kinase assay (Reaction Biology); conditions: 10 μM ATP
# T4 construct: purchased Reaction Biology Corporation
# Description: as §2
# HCC78 cell line = assay: Cell proliferation assay (CellTiter-Glo); type: cell-based; conditions: Homo sapiens, 72 hours, SLC34A2-ROS1 fusion gene
# Description: Two thousand cells per well were seeded in 384 well white plate for 24 hrs, and then treated with compounds for 72 hours (37° C., 5% CO2). Cell proliferation was measured using CellTiter-Glo luciferase-based ATP detection assay (Promega) following the manufactures's protocol. IC50 determinations were performed using GraphPad Prism software (GraphPad, Inc., San Diego, Calif.).
# [2] = test system: Ba/F3 EML4-ALK F1174C cell line; assay: Cell proliferation assay (CellTiter-Glo); type: cell-based; conditions: Mus musculus, 72 hours
# LTK = biological target: T5, LTK (Homo sapiens, UniProt P29376); assay: Biochemical kinase assay (Reaction Biology); conditions: 10 μM ATP
# T5 construct: purchased Reaction Biology Corporation (contract assay)
# T5 sequence (P29376 17-864): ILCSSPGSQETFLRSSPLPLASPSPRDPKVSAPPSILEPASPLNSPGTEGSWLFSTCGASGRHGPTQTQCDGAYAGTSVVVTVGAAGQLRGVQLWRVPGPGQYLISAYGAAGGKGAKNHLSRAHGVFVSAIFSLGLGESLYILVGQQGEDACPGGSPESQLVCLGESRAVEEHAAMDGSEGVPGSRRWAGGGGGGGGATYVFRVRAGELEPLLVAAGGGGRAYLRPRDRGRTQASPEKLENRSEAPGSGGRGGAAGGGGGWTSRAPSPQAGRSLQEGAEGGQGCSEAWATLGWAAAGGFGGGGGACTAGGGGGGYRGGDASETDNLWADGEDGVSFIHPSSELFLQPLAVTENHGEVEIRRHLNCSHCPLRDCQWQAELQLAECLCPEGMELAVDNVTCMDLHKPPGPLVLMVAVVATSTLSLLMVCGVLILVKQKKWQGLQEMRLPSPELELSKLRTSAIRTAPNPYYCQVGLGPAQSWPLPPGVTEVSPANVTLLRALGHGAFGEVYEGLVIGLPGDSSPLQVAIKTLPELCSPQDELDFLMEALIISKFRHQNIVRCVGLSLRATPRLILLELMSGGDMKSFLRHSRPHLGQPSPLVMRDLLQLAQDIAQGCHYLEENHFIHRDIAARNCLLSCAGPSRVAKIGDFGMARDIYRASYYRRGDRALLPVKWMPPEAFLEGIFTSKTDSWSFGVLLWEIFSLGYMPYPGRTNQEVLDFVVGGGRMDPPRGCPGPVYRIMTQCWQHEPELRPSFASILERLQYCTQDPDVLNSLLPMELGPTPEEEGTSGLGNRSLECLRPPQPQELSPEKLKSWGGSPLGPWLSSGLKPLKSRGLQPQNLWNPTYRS
# Description: as §2
# Karpas 299 tumors = assay: Karpas 299 ALCL subcutaneous xenograft model; type: in vivo, SCID/Beige mice; conditions: 50 mg/kg BID orally, seven days
# Description: Female athymic nude mice and SCID/Beige mice (5-8 weeks of age) were obtained from Charles River Laboratory and were housed in Innovive IVC disposable cages on HEPA filtered ventilated racks with ad libitum access to rodent chow and water. Five million cells in 100 μL, serum-free medium were implanted subcutaneously in the right flank region of the mouse. […] Tumor size and body weight were measured on designated days. Tumor size was measured with an electronic caliper and tumor volume was calculated as the product of length*width^2*0.5.
# The control group of mice were given vehicle only. […] In the case of TMVTreated Last Day of Treatment<TMVTreated First Day of Treatment, tumor regression (REG) was calculated as 100%*(1−TMVTreated Last Day of Treatment/TMVTreated First Day of Treatment).
# [3] = test system: Ba/F3 CD74-ROS1 G2032R tumors; assay: Ba/F3 CD74-ROS1 G2032R subcutaneous xenograft model; type: in vivo, SCID/Beige mice; conditions: 11 days
# Description: Female athymic nude mice and SCID/Beige mice (5-8 weeks of age) were obtained from Charles River Laboratory and were housed in Innovive IVC disposable cages on HEPA filtered ventilated racks with ad libitum access to rodent chow and water. Five million cells in 100 μL serum-free medium were implanted subcutaneously in the right flank region of the mouse. […] All models were implanted with 50% matrigel (Corning, Inc) in the medium. Tumor size and body weight were measured on designated days. Tumor size was measured with an electronic caliper and tumor volume was calculated as the product of length*width^2*0.5.
# The control group of mice were given vehicle only.
# STAT5 = assay: Immunoblotting cellular phosphorylation assay, SET-2 cells (JAK2 V617F); type: cell-based; conditions: Homo sapiens, SET-2, 4 h, 4 hours treatment, read-out: STAT5 phosphorylation of SET-2 cell line IC50
# Description: as §1
# Ba/F3 + IL3 parental = assay: Cell proliferation assay (CellTiter-Glo); type: cell-based; conditions: Mus musculus, BaF3; parental cells with IL3
# IGFR = biological target: T6, IGFR (Homo sapiens, UniProt P08069); assay: Biochemical kinase assay (Reaction Biology); conditions: 10 μM ATP
# T6 construct: purchased Reaction Biology Corporation (contract assay)
# T6 sequence (P08069 31-1367): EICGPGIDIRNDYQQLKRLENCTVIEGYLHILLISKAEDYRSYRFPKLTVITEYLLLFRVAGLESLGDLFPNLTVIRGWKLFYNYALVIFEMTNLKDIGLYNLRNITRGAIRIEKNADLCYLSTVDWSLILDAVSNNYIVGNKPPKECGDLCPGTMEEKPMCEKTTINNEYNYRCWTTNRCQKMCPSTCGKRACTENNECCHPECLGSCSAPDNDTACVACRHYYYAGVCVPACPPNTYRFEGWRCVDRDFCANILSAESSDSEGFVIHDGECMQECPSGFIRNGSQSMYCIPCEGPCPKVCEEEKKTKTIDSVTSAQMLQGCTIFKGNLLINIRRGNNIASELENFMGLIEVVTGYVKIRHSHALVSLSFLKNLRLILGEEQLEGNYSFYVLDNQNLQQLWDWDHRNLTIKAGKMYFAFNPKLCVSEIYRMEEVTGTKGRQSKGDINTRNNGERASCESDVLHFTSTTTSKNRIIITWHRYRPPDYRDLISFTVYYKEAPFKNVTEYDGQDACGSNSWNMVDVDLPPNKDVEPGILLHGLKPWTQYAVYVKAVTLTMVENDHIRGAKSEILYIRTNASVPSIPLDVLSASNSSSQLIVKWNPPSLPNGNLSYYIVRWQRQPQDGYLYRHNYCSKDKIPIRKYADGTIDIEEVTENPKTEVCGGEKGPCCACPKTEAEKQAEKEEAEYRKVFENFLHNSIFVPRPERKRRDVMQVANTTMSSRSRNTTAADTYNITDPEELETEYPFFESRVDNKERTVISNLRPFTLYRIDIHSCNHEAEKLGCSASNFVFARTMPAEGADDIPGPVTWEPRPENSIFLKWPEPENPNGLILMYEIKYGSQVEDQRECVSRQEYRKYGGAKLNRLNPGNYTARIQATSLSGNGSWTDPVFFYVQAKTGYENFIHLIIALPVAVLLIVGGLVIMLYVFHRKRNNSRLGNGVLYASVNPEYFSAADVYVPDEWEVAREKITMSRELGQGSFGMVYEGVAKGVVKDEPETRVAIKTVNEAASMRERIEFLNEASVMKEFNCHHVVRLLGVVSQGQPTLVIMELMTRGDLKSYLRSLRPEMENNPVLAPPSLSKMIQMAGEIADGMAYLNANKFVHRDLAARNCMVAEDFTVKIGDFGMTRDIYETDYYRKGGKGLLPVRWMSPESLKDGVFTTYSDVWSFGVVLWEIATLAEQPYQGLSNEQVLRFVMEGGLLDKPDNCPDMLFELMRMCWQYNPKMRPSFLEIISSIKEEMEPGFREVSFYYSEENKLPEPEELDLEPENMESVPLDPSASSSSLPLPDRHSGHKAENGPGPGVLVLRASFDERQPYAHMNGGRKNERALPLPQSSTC
# Description: as §2
# Karpas-299 cells = assay: Apoptosis/caspase activity assay; type: cell-based; conditions: 48 hours treatment
# Description: Karpas-299 cells were maintained in RPMI medium supplemented with 10% fetal bovine serum and antibiotics. Five hundred thousand cells per well were seeded in 12-well plate and various concentration of compounds were introduced and incubated for 48 hrs. The cells were then collected and lysed in a lysis buffer (20 mM HEPES, 150 mM NaCl, 10 mM KCl, 5 mM EDTA, 1% NP40) supplemented with Halt protease and phosphatase inhibitors (Thermo Scientific). For caspase assays, approximately 20 μg of cell lysate were incubated with 20 μl of caspase-3 glo reagent (Promega), and the enzyme activity was measured by the release of luminescence after 20 min incubation at 37° C. For western blotting, cell lysate were boiled and analyzed by SDS-PAGE/immunoblotting using anti-caspase-3 (Cell Signaling Technology), anti-PARP (Cell Signaling Technology), or anti-actin (Cell Signaling Technology) antibodies. Antibodies were typically incubated overnight at 4° C. with gentle shake, followed by washes and incubation with the appropriate HRP-conjugated secondary antibodies. Membranes were incubated with chemiluminescent substrate for 5 min at room temperature (SuperSignal West Femto, Thermo Scientific), and the chemiluminescent images were obtained with a C-DiGit Imaging System (LI-COR Biosciences).
# RET = biological target: T7, RET (Homo sapiens, UniProt P07949); assay: Biochemical kinase assay (Reaction Biology); conditions: 10 μM ATP
# T7 construct: purchased Reaction Biology Corporation (contract assay)
# Description: as §2
# ERK = assay: Immunoblotting downstream signaling, KM12 cells; type: cell-based; conditions: Homo sapiens; KM12 cell line; read-out: downstream ERK phosphorylation IC50
# Description: as §1
# AKT [4] = assay: Immunoblotting downstream signaling, KM12 cells; type: cell-based; conditions: Homo sapiens; KM12 cell line; read-out: downstream AKT phosphorylation IC50
# Description: as §1
# [5] = test system: Ba/F3 TPR-ALK wild type cell line; assay: Cell proliferation assay at Advanced Cellular Dynamics (CellTiter-Glo); type: cell-based; conditions: Mus musculus, BaF3, 48 hours
# Ba/F3 EML4-ALK WT tumors = assay: Ba/F3 EML4-ALK WT subcutaneous xenograft model; type: in vivo, SCID/Beige mice; conditions: 14 days
# T1 sequence (O00444 whole entry): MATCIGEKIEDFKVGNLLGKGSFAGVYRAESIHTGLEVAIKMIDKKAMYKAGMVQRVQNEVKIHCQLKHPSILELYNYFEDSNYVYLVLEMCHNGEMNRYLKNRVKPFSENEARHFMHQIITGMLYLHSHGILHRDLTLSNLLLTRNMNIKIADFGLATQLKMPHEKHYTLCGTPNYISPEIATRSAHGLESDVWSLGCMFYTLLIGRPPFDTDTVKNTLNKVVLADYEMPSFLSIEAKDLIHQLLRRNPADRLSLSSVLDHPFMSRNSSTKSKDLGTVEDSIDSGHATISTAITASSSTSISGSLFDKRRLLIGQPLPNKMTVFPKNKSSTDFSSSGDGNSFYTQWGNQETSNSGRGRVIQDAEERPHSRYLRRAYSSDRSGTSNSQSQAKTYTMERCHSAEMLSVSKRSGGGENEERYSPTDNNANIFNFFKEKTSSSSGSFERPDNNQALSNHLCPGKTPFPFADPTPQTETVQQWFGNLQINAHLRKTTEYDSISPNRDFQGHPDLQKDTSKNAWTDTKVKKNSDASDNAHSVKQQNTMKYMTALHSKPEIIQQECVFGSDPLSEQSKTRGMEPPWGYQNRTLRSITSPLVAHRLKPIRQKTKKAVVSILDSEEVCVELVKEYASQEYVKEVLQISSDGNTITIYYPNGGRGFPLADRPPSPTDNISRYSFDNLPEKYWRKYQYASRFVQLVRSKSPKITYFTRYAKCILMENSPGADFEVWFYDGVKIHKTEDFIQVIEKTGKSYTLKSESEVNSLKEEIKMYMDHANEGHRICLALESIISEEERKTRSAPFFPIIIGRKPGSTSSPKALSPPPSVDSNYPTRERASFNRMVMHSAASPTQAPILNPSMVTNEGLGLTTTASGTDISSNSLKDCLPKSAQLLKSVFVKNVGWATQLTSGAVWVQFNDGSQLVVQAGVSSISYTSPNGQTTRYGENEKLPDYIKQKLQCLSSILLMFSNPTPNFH
smiles,measurement,setting,value
"C[C@H]1CNC(=O)c2cnn3ccc(nc23)N[C@H](C)c2cc(F)ccc2O1 [Compound 1, (7S,13R)-11-fluoro-7,13-dimethyl-6,7,13,14-tetrahydro-1,15-ethenopyrazolo[4,3-f][1,4,8,10]benzoxatriazacyclotridecin-4(5H)-one]",IC50,PLK4,126 nM
same,IC50,STAT3,1 to 3 nM
same,IC50,AKT [1],1 to 3 nM
same,IC50,FGR,3.05 nM
same,IC50,PYK2,39.9 nM
same,IC50,YES,2.15 nM
same,IC50,HCC78 cell line,0.3 nM
same,IC50,[2],54 nM
same,IC50,LTK,21.8 nM
same,mice exhibiting tumor regression,Karpas 299 tumors,4 of 8
same,mice exhibiting tumor regression,[3]; 15 mg/kg/BID orally,2 of 8
same,mice exhibiting complete tumor regression,[3]; 75 mg/kg BID orally,8 of 8
same,tumor regression (REG),[3]; 75 mg/kg BID orally,100%
same,IC50,STAT5,~158 nM
same,IC50,Ba/F3 + IL3 parental,1240 nM
same,IC50,IGFR,111 nM
same,"apoptosis of Karpas-299 cells (caspase 3/7 glo, PARP western blotting)",Karpas-299 cells,increased the number of apoptotic Karpas-299 cells
same,IC50,RET,47.1 nM
same,IC50,ERK,~0.3 nM
same,IC50,AKT [4],~0.3 nM
same,IC50,[5],12 nM
same,Tumor growth inhibition (TGI),Ba/F3 EML4-ALK WT tumors; 15 mg/kg/BID orally,74%
same,mice exhibiting tumor regression,Ba/F3 EML4-ALK WT tumors; 75 mg/kg BID orally,6 of 8
same,tumor regression (REG),Ba/F3 EML4-ALK WT tumors; 75 mg/kg BID orally,54%
